Results on 38 compounds are retold here after ChEMBL document CHEMBL1862790, “Optimisation of fenarimol series for the treatment of Chagas disease”.

A short description of data set [1]: DNDI: Cytotoxicity against L-6 rat myoblasts from skeletal muscle cells. The conditions noted are these: L6 rat skeletal muscle myoblast cells, IC50.
The test system of data set [2] is Trypanosoma cruzi. In words: microbe, parasite or virus in culture. It counts as functional, Tulahuen LacZ, Clone C4. The conditions noted are these: Trypanosoma cruzi, Tulahuen LacZ, Clone C4.
Data set [3] has as its system Trypanosoma cruzi. In words: microbe, parasite or virus in culture. It counts as functional, organism-based, Tulahuen LacZ, Clone C4. To be noted: Trypanosoma cruzi, Tulahuen LacZ, Clone C4.

On to `Cc1noc(C)c1C(=O)NC1CCN(C(c2ccc(C(F)(F)F)cc2)c2cccnc2)CC1` (centres undefined), for which the IC50 in data set [1] is over 100 µM; in data set [3] it was 0.009 µM. In data set [2], this compound yielded an IC90 of 0.028 µM.
For `Fc1cc(Cl)ccc1C(NC1CCN(c2ccc(Cl)cc2)CC1)c1cccnc1` (centres undefined), in that order: 47.2 µM, 0.0075 µM and 0.025 µM.
For `Cc1nc(C(=O)NC2CCN(C(c3ccc(C(F)(F)F)cc3)c3cccnc3)CC2)co1` (centres undefined), in that order: 56.4 µM, 0.0195 µM and 0.044 µM.
For `Cc1noc(C)c1C(=O)N1CCC(NC(c2ccc(C(F)(F)F)cc2)c2cncs2)CC1` (centres undefined), in that order: over 100 µM, 0.141 µM and 0.515 µM.
Regarding `Cc1nocc1C(=O)NC1CCN(C(c2ccc(C(F)(F)F)cc2)c2cccnc2)CC1` (centres undefined), the IC50 was 65.3 µM in data set [1] and 0.0155 µM in data set [3]. In data set [2], this compound returned an IC90 of 0.176 µM.
As for `N#Cc1ccccc1N1CCC(NC(c2cccnc2)c2ccc(Cl)cc2F)CC1` (centres undefined), the figures for the IC50 in data set [1] and in data set [3] were 39.9 µM and 0.00748 µM, respectively. This compound also returned an IC90 in data set [2] of 0.0249 µM.
On the same counts, the results for `Cc1cc(C(=O)NC2CCN(C(c3ccc(C#N)cc3)c3cccnc3)CC2)nn1C` (centres undefined) are over 100 µM, 0.261 µM and 0.963 µM.
Consider `Cc1nc(C(=O)NC2CCN(C(c3ccc(C(F)(F)F)cc3)c3cccnc3)CC2)cs1` (centres undefined), for which the IC50 in data set [1] is 43.8 µM; in data set [3], 0.0175 µM. The IC90 in data set [2] came out at 0.041 µM.
On the same counts, the results for `Fc1cc(Cl)ccc1C(NC1CCN(c2nccc(C(F)(F)F)n2)CC1)c1cccnc1` (centres undefined) are 55.4 µM, 0.0225 µM and 0.063 µM.
On the same counts, the results for `O=C(c1ccccc1)N1CC(NC(c2ccc(C(F)(F)F)cc2)c2cccnc2)C1` (centres undefined) are 83.8 µM, 0.189 µM and 0.72 µM.
For `N#Cc1cnc(N2CCC(NC(c3cccnc3)c3ccc(Cl)cc3F)CC2)s1` (centres undefined), in that order: 55.7 µM, 0.021 µM and 0.0445 µM.
Regarding `Fc1cc(Cl)ccc1C(NC1CCN(c2ccccc2C(F)(F)F)CC1)c1cccnc1` (centres undefined), the IC50 was 57 µM in data set [1] and 0.017 µM in data set [3]. In addition, it took 0.0645 µM to reach the 90% level in data set [2] (IC90).
On the same counts, the results for `Cc1cc(C(=O)N2CCC(NC(c3ccc(C(F)(F)F)cc3)c3cccnc3)CC2)nn1C` (centres undefined) are 58.6 µM, 0.0665 µM and 0.269 µM.
On the same counts, the results for `Cc1ncsc1C(=O)N1CC(NC(c2ccc(C(F)(F)F)cc2)c2cccnc2)C1` (centres undefined) are over 100 µM, 0.186 µM and 0.553 µM.
As to `N#Cc1ccc(C(c2cccnc2)N2CCC(NC(=O)c3cc[nH]n3)CC2)cc1` (centres undefined), the IC50 in data set [1] was over 100 µM; in data set [3] it was 0.448 µM. For the same compound, it took 0.917 µM to reach the 90% level in data set [2] (IC90).
For `Cc1cc(C(=O)NC2CCN(C(c3ccc(C(F)(F)F)cc3)c3cccnc3)CC2)n(C)n1` (centres undefined), in that order: 54.6 µM, 0.012 µM and 0.0285 µM.
For `FC(F)(F)c1ccc(C(NC2CCN(c3ncccn3)CC2)c2cscn2)cc1` (centres undefined), in that order: 88.1 µM, over 1 µM and over 1 µM.
For `Fc1cnc(N2CCC(NC(c3cccnc3)c3ccc(Cl)cc3F)CC2)nc1` (centres undefined), in that order: 73.3 µM, 0.032 µM and 0.0935 µM.
On to `Cc1n[nH]c(C)c1C(=O)N1CCC(NC(c2ccc(C(F)(F)F)cc2)c2cccnc2)CC1` (centres undefined), for which the IC50 in data set [1] was over 100 µM; in data set [3], 0.0265 µM. The compound also displayed an IC90 in data set [2] of 0.149 µM.
Regarding `Fc1ccc(N2CCC(NC(c3cccnc3)c3ccc(Cl)cc3F)CC2)cc1` (centres undefined), the IC50 amounted to 55.4 µM in data set [1] and 0.019 µM in data set [3]. In addition, the 90% effect level in data set [2] (IC90) was put at 0.053 µM.
On the same counts, the results for `Fc1cccc(F)c1N1CCC(NC(c2ccc(C(F)(F)F)cc2)c2cccnc2)CC1` (centres undefined) are 54.2 µM, 0.018 µM and 0.0545 µM.
For `NC(=O)c1cccc(N2CCC(NC(c3cccnc3)c3ccc(Cl)cc3F)CC2)c1` (centres undefined), in that order: over 100 µM, 0.0715 µM and over 0.1 µM.
On the same counts, the results for `Cc1n[nH]c(C)c1C(=O)NC1CCN(C(c2ccc(C#N)cc2)c2cccnc2)CC1` (centres undefined) are over 100 µM, 0.185 µM and 0.518 µM.
Take `FC(F)(F)c1ccc(C(NC2CN(c3ncccn3)C2)c2cccnc2)cc1` (centres undefined): the IC50 in data set [1] is over 100 µM; in data set [3], 0.115 µM. This compound yielded an IC90 in data set [2] of 0.756 µM.
On the same counts, the results for `O=C(NC1CCN(C(c2ccc(C(F)(F)F)cc2)c2cccnc2)CC1)c1ccccc1C(F)(F)F` (centres undefined) are over 100 µM, 0.006 µM and 0.01 µM.
Regarding `Cn1cc(C(=O)NC2CCN(C(c3ccc(C(F)(F)F)cc3)c3cccnc3)CC2)c(C(F)(F)F)n1` (centres undefined), the half-inhibitory concentration (IC50) in data set [1] was determined as 53.4 µM; in data set [3], 0.016 µM. In data set [2], this compound showed an IC90 of 0.0365 µM.
On the same counts, the results for `Cc1cc(C(=O)N2CCC(NC(c3ccc(C(F)(F)F)cc3)c3cccnc3)CC2)n(C(C)(C)C)n1` (centres undefined) are 71.7 µM, 0.0475 µM and 0.149 µM.
On the same counts, the results for `NC(=O)c1ccccc1N1CCC(NC(c2cccnc2)c2ccc(Cl)cc2F)CC1` (centres undefined) are 71.8 µM, 0.076 µM and over 0.1 µM.
Regarding `N#Cc1ccccc1OC1CCN(C(c2ccc(C(F)(F)F)cc2)c2cccnc2)CC1` (centres undefined), the IC50 in data set [1] was 57.8 µM; in data set [3], 0.048 µM. Also, the IC90 in data set [2] came out at 0.09 µM.
For `CC(C)(C)OC(=O)N1CC(NC(c2ccc(C(F)(F)F)cc2)c2cccnc2)C1` (centres undefined), in that order: 62.5 µM, 0.095 µM and 0.702 µM.
On the same counts, the results for `Cc1nc(C)c(C(=O)NC2CCN(C(c3ccc(C(F)(F)F)cc3)c3cccnc3)CC2)s1` (centres undefined) are 55.7 µM, 0.018 µM and 0.031 µM.
On the same counts, the results for `FC(F)(F)c1ccc(C(NC2CCN(c3ncccn3)CC2)c2cncs2)cc1` (centres undefined) are 76.7 µM, 0.02 µM and 0.064 µM.
With `Fc1ccccc1N1CCC(NC(c2ccc(C(F)(F)F)cc2)c2cccnc2)CC1` (centres undefined), the figures for the half-maximal inhibitory concentration (IC50) in data set [1] and in data set [3] were 53.1 µM and 0.017 µM, respectively. This compound registered an IC90 in data set [2] of 0.0305 µM.
As to `FC(F)(F)c1ccc(C(c2cccnc2)N2CCC(Oc3ccccc3)CC2)cc1` (centres undefined), the IC50 in data set [1] stood at 54.4 µM; in data set [3], 0.0265 µM. The 90% effect concentration (IC90) in data set [2] was over 0.1 µM.
With `N#Cc1ccccc1N1CCC(NC(c2ccc(C(F)(F)F)cc2)c2cccnc2)CC1` (centres undefined), the values for the IC50 in data set [1] and in data set [3] were 52.3 µM and 0.007 µM, respectively. Further, the IC90 in data set [2] amounted to 0.0205 µM.
On the same counts, the results for `FC(F)(F)c1ccc(C(NC2CCN(c3ccccc3C(F)(F)F)CC2)c2cccnc2)cc1` (centres undefined) are 45.8 µM, 0.009 µM and 0.0315 µM.
On the same counts, the results for `OC(c1cccnc1)(c1cncc(F)c1)c1ccc(Cl)cc1F` (centres undefined) are over 100 µM, 0.228 µM and 0.868 µM.
For `Cc1cc(C(=O)NC2CCN(C(c3ccc(C(F)(F)F)cc3)c3cccnc3)CC2)n(C(C)(C)C)n1` (centres undefined), in that order: over 100 µM, 0.0135 µM and 0.0265 µM.

As usually defined, the IC50 is the concentration that inhibits the measured activity by half. A low value points to greater potency in that assay. Broadly, the IC90 is the concentration needed for an effect of 90%.
